For assay [1], the system named is L1210 cells. Put plainly: Cytotoxicity (cell growth, MTT) in L1210 cells. The assay is classed as cell-based, mouse. An excerpt:
(§1) In terms of Table 1, L1210 cells are mouse leukemia cells and are the gold standard in terms of evaluating polyamine cytotoxicity data due to a plethora of prior data in this cell line for other polyamine structures. Clearly 7a was similar in all respects to 4a (Table 1). […] The lower the Ki value, the higher the affinity of the drug for the polyamine transporter (PAT) on the cell surface. Chinese hamster ovary (CHO) cells and a mutant line without an active PAT (CHO-MG) also evaluated the PAT selectivity of these drugs.
Biological Evaluation. Once synthesized, the conjugates were screened for cytotoxicity in L1210, CHO and CHO-MG cells. L1210 (mouse leukemia) cells were selected to enable comparisons with the published IC50 and Ki values for a variety of polyamine substrates. Chinese Hamster Ovary (CHO) cells were chosen along with a mutant PAT deficient cell line (CHO-MG) in order to comment on selective transport via the PAT (Wang et al, J. Med. Chem. 2003, 46, 2663-2671; Wang et al, J. Med. Chem. 2003, 46, 2672-2682; Wang et al., J. Med. Chem. 2003, 46, 5129-5138; Delcros et al., J. Med. Chem., 2002, 45, 5098-5111).
(§2) L1210 IC50 and Ki studies. […] The Ki values in Table 3 were determined for [^14C]spermidine uptake and reflect the affinity of the polyamine derivative for the polyamine transporter on the cell surface. With both parameters, one can determine whether high affinity for the transporter (e.g., low Ki value) translated into high cytotoxicity (e.g., low IC50 value), etc.
(§3) Biological studies. Murine leukemia cells (L1210), CHO and CHO-MG cells were grown in RPMI medium supplemented with 10% fetal calf serum, glutamine (2 mM), penicillin (100 U/mL), streptomycin (50 μg/mL). L-Proline (2 μg/mL) was added to the culture medium for CHO-MG cells. Cells were grown at 37° C. under a humidified 5% CO2 atmosphere. Aminoguanidine (AG, 2 mM) was added to the culture medium to prevent oxidation of the drugs by the enzyme (bovine serum amine oxidase) present in calf serum. Trypan blue staining was used to determine cell viability before the initiation of a cytotoxicity experiment. Cells in early to mid log-phase were used. IC50 determinations. Cell growth was assayed in sterile 96-well microtiter plates (Becton-Dickinson, Oxnard, Calif., USA). L1210 cells were seeded at 5e^4 cells/mL of medium (100 μL/well). CHO and CHO-MG cells were plated at 2e^3 cells/mL. Drug solutions (10 μL per well) of appropriate concentration were added at the time of seeding for L1210 cells and after an overnight incubation for the CHO cell lines. After exposure to the drug for 48 hr, cell growth was determined by measuring formazan formation from 3-(4,5-dimethylthiazol-2-yl)2,5-diphenyltetrazolium using a Titertek Multiskan MCC/340 microplate reader for absorbance (540 nm) measurements (Mosmann, T., J. Immunol. Methods 1983, 65, 55-63).

Assay [2] deals with polyamine transporter (PAT). Put plainly: Ki for inhibition of [14C]spermidine uptake in L1210 cells. Type of assay: cell-based, mouse. The conditions noted are these: [14C]spermidine uptake, 10-min, 1 μM substrate; read-out: L1210 Ki values.
From the text: as §1, §2
Ki procedure. The ability of the conjugates to interact with the polyamine transport system was determined by measuring competition by the conjugates against radiolabeled spermidine uptake in L1210 cells. Initially, the Km value of spermidine transport was determined as previously described (Clément et al., Biochem. J. 1995, 312, 933-938). The ability of conjugates to compete for [^14C]spermidine uptake were determined in L1210 cells by a 10-min uptake assay in the presence of increasing concentrations of competitor, using 1 μM [^14C]spermidine as substrate. Ki values for inhibition of spermidine uptake were determined using the Cheng-Prusoff equation (Cheng and Prusoff, Biochem. Pharmacol. 1973, 22, 3099-3108) from the IC50 value derived by iterative curve fitting of the sigmoidal equation describing the velocity of spermidine uptake in the presence of the respective competitor (Torossian et al., Biochem. J., 1996, 319, 21-26). L1210 cells were grown and maintained according to established procedures (Bergeron et al., J. Med. Chem. 2000, 43, 224-235) and were washed twice in HBSS prior to the transport assay.

Assay [3] deals with CHO cells. Nature of the assay: Cytotoxicity in CHO cells. Type of assay: cell-based, Chinese hamster.
From the text: as §1
(§4) CHO and CHO-MG studies. Chinese hamster ovary (CHO) cells were chosen along with a mutant cell line (CHO-MG) in order to comment on how the synthetic conjugates gain access to cells. The CHO-MG cell line is polyamine-transport deficient and was isolated after selection for growth resistance to methylglyoxalbis(guanylhydrazone), MGBG, (CH3C[═N—NHC(═NH)NH2]CH[═N—NHC(═NH)NH2]) using a single-step selection after mutagenesis with ethylmethanesulfonate (Mandel et al., J. Cell. Physiol., 1978, 97, 335-344; Byers et al., Biochem. J. 1989, 263, 745-752).
In contrast, the parent CHO cell line represents a cell type with high PAT activity. Comparison of conjugate cytotoxicity in these two CHO lines provided an important screen to detect selective conjugate delivery via the PAT. For example, a conjugate with high utilization of the polyamine transporter would be very toxic to CHO cells, but less so to CHO-MG cells. In short, highly-selective PAT ligands should give high (CHO-MG/CHO) IC50 ratios.
as §3, with “Aminoguanidine (AG, 2 mM) was added to the culture medium to prevent oxidation of the drugs by the enzyme (bovine serum amine oxidase) present in calf serum.” left out

The test system of assay [4] is CHO-MG cells. Put plainly: Cytotoxicity in PAT-deficient CHO-MG cells. The assay is classed as cell-based, Chinese hamster.
From the text: as §1, §4
For the purposes of this study, the CHO-MG cell line represents cells with no PAT activity and provided a model for alternative modes of entry or action, which are independent of PAT. These alternative modes of entry include passive diffusion or utilization of another transporter. The alternative modes of action may also include interactions on the outer surface of the plasma membrane or other membrane receptor interactions.
as §3, with “Aminoguanidine (AG, 2 mM) was added to the culture medium to prevent oxidation of the drugs by the enzyme (bovine serum amine oxidase) present in calf serum.” left out

Assay [5] concerns CHO-MG cells. To be noted: 48 h incubation; data originally reported in Ref; cited from earlier work.
In assay [6] the test system is CHO cells. The conditions noted are these: data originally reported in Ref, cited from earlier work.
Assay [7] deals with polyamine transporter (PAT). The conditions noted are these: data originally reported in Ref; read-out: L1210 Ki value; cited from earlier work.
The test system of assay [8] is Drosophila imaginal leg discs. Put plainly: Imaginal disc eversion assay. To be noted: Drosophila melanogaster, 15 hr incubation in Robb's medium. The assay is classed as cell-based, Drosophila melanogaster. The method, then: DihydroMotuporamine C, 4a, was used to develop an imaginal disc assay in Drosophila flies. The imaginal leg discs were collected by microscopic dissection from maggots. […] Inhibition was measured as failure of the disc to fully develop into a fly leg after 15 hr of incubation in Robb's growth medium. This presumably occurs by overactivation of Rho, an important signaling pathway in development. Hyper-stimulation of this pathway is sufficient to block development of the fly leg.
Fly Stocks: 20 female and 5 male wild type Oregon variant of Drosophila melanogaster interbred in blue food medium for 24 hours then flies are removed. Third instar wall-crawling larvae collected then dissected on the sixth day. Flies kept in 25° C. incubation chamber.
Blue Food Preparation: Standard corn meal medium heated then mixed completely with aqueous 1% Bromophenol Blue. The food medium is cooled for one day or more before use.
Dissection Medium: Ringer's Buffer with 10 uL 0.1% BSA. Ringer's Medium consists of 130 mM NaCl, 5 mM KCl, 1.5 mM CaCl2-2H2O, Stored at room temperature (23° C.), BSA added before dissection.
Cultivation Medium: Minimal Robb's Medium with 10 uL 0.1% BSA. Minimal Robb's Medium consists of 40 mM KCl, 0.4 mM KH2PO4, 40 mM NaCl, 0.4 mM NaH2PO4.7H2O, 1.2 mM MgSO4.7H2O, 1.2 mM MgCl2-6H2O, 1 mM CaCl2-2H2O, 10 mM Glucose, 0.2 mM L-asparagine, 4.0 mM L-glutamine, 0.16 mM Glycine, 0.64 mM L-leucine, 0.32 mM L-proline, 0.16 mM R-Serine, 0.64 mM L-valine. Stored at −25° C. One day before dissection, aliquot defrosted in 4° C. Add BSA then warmed to room temperature (23° C.) before dissection.
0.1% BSA: 0.1 g BSA fraction V (Sigma#A-9647) in 10 mL distilled H2O, Stored at 4° C.
Developmental Hormone: 1 mg 20-hydroxyecdysone (Sigma #H-5142) in 1 mL 100% Ethanol. Stored at −25° C. Before use, stock is diluted 10× (1 mL added to 9 mL of 100% Ethanol). 10 μL of diluted 20-hydroxyecdysone is added to culture.
Dissection Procedures: Third instar larvae are removed from cultivation bottle with a wetted brush and washed in dH2O to remove food medium clinging to larvae. The cleaned larvae are dissected in Ringer's Medium using forceps. The imaginal discs are washed in fresh Ringer's Medium, and then cultivated with 1 mL of Robb's Medium in 12-well culture plate. Each culture well should have 30˜40 imaginal discs.
Culturing Procedures: In a larger container, place the 12-well culture plate on a moist towel, then seal the large container. Cultivate at 25° C. for 15 hours. Evaluation: Three categories will be used to grade the eversion of each imaginal disc. Full Eversion—the leg is fully extended from the disc. Partial Eversion—the leg is protruding from the epithelial. No Eversion—no sign of any protrusion.

Setting [9] is: Mus musculus, L1210 experiments, no added SPD, read-out: L1210 IC50.

Read-outs that look alike come from different tables or passages of the source.

In the case of `CNCCCCNCCCCNCc1c2ccccc2cc2ccccc12` [Compound 28, N-Anthracen-9-ylmethyl-N′-(4-methylamino-butyl)-butane-1,4-diaine], the IC50 is 0.4 µM in assay [1] (L1210 experiments, no added SPD, read-out: L1210 IC50); 0.4 µM in assay [1] (in the presence of AG, 48 h at 37° C., read-out: L1210 IC50); 1.38 µM in assay [1] (spermidine rescue, excess SPD (200 μM), read-out: L1210 IC50 in the presence of added SPD); 4.89 µM in assay [3] (absence of AG, 48 h, read-out: CHO IC50 w/o AG); 4.88 µM in assay [3] (in the presence of AG, 48 h at 37° C., read-out: CHO IC50); 56.2 µM in assay [4] (absence of AG, 48 h, read-out: CHO-MG IC50 w/o AG). Moreover, the IC50 in assay [4] (in the presence of AG, 48 h at 37° C., read-out: CHO-MG IC50) is 60 µM. Besides, the Ki in assay [2] worked out at 8.2 µM. In assay [3] (absence of AG), the “CHOMG/CHO IC50 ratio in the absence of AG” value was 11.5. Further, the “IC50 Ratio (CHO-MG/CHO) w/o AG” value in assay [3] (absence of AG) amounted to 11.5. Also, the “IC50 Ratio (CHO-MG/CHO), a measure of PAT selectivity” value (“IC50 Ratio … of PAT selectivity” below) in assay [3] (in the presence of AG) was 12.3. Moreover, the “IC50 Ratio (CHO-MG/CHO) with AG” value in assay [3] (with AG) is given as 12.3.
As to `CCNCCCCNCCCCNCc1c2ccccc2cc2ccccc12` [Compound 27, N-Anthracen-9-ylmethyl-N′-(4-ethylamino-butyl)-butane-1,4-diamine], the IC50 in assay [1] (Mus musculus, L1210, in the presence of AG, 48 h at 37° C., read-out: L1210 IC50) is 1.01 µM; in assay [1] (setting [9]), 1.01 µM; in assay [3] (Cricetulus griseus, CHO, absence of AG, 48 h, read-out: CHO IC50 w/o AG), 13.2 µM; in assay [3] (Cricetulus griseus, CHO, in the presence of AG, 48 h at 37° C., read-out: CHO IC50), 9.82 µM; in assay [4] (Cricetulus griseus, CHO-MG, absence of AG, 48 h, read-out: CHO-MG IC50 w/o AG), 51.2 µM; in assay [4] (Cricetulus griseus, CHO-MG, in the presence of AG, 48 h at 37° C., read-out: CHO-MG IC50) it was 57.9 µM. Besides, the Ki in assay [2] amounted to 3.5 µM. For the same molecule, the “CHOMG/CHO IC50 ratio in the absence of AG” value in assay [3] (absence of AG) is 4. Further, the “IC50 Ratio (CHO-MG/CHO) w/o AG” value in assay [3] (absence of AG) is recorded as 4. Further, the “IC50 Ratio … of PAT selectivity” value in assay [3] (in the presence of AG) is listed as 5.9. Moreover, the “CHOMG/CHO IC50 ratio” value in assay [3] (with AG) worked out at 5.9. Further, in assay [3] (with AG), the “IC50 Ratio (CHO-MG/CHO) with AG” value was 5.9.
In the case of `CCN(CCCCNCCCCN)Cc1c2ccccc2cc2ccccc12` [Compound 7b, N-(4-Amino-butyl)-N′-anthracen-9-ylmethyl-N′-ethyl-butane-1,4-diamine], the IC50 was 21.9 µM in assay [5], 22.2 µM in assay [6] (48 h incubation) and 22.2 µM in assay [1] (setting [9]). Besides, the “IC50 Ratio … of PAT selectivity” value in assay [6] is listed as 1. The Ki in assay [7] is 24.4 µM. This molecule had an inhibition at 18 µM in assay [8] of 8%.

A word on the Ki: it is a measure of affinity in units of concentration, obtained from inhibition or displacement. By inhibition is commonly meant the share of the control response that was lost under treatment.

These data come from patent US20090069441A1, “Motuporamine Mimic Agents” (priority 2006, published 2009).
